# Test results taken from US6579881B2 (Eisai Co., Ltd., priority 1997, dated 2003).
# Experiments:
# serotonin 1A receptor = target: T1, serotonin 1A receptor (Rattus norvegicus, UniProt P19327); test: Binding test on [3H] 8-hydroxy-dipropylaminotetralin (serotonin 1A receptor); conditions: [3H] 8-OH-DPAT 0.5 nM, receptor fraction of rat hippocampus; read-out: 5HT1a
# T1 construct: To the receptor fraction of the hippocampus were added a test compound and 0.5 nM of [^3H]; 8-hydroxy-dipropylaminotetralin; from tissue; host or cells: SD rat hippocampus, membrane (receptor) fraction
# T1 sequence (P19327 1-422): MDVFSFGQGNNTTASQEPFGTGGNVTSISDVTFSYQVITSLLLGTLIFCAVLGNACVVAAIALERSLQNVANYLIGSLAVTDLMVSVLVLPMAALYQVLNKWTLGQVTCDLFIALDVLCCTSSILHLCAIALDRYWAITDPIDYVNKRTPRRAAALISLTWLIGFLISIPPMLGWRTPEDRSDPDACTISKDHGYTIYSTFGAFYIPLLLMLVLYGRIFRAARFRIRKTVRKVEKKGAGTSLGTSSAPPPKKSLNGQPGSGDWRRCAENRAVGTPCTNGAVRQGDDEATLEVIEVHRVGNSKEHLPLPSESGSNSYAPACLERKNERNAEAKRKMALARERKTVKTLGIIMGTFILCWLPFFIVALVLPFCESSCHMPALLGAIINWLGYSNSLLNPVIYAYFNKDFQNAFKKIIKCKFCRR
# serotonin 2 receptor = serotonin 2 receptor (Rattus norvegicus, UniProt P14842); test: Binding test on [3H] ketanserin (serotonin 2 receptor); conditions: [3H] ketanserin 0.3 nM, receptor fraction of rat cerebral cortex; read-out: 5HT2
# Chain of serotonin 2 receptor (P14842 whole entry): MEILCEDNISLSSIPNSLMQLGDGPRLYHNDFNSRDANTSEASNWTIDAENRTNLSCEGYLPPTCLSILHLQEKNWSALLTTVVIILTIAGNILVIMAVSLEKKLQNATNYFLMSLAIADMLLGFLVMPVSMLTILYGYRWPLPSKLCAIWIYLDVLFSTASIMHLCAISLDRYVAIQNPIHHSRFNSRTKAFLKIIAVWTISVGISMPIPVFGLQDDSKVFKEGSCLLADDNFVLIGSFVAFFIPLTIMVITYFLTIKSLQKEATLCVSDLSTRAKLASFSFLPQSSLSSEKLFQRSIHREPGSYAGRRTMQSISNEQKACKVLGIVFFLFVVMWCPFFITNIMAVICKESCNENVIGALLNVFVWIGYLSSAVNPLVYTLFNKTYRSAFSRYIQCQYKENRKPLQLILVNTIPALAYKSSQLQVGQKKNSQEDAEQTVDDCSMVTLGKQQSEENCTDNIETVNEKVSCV
# Method: Use was made of SD rats aged 6 to 8 weeks.
# The rats were sacrificed by dcapitation to extirpate the cerebra.
# The hippocampus was mixed with 50 times (on the wet weight basis) as much a 0.32 M sucrose solution while the cortex was mixed with 10 times as much the same solution. Each mixture was homogenized by using a Teflon glass homogenizer and centrifuged at 1,000×g for 10 min. The supernatant thus obtained was further centrifuged at 20,000×g for 20 min. The obtained precipitate was re-suspended in 50 times (based on the intial wet weight; in the case of the hippocampus) or 10 times (in the case of the cortex) as much a 50 mM Tris hydrochloride (pH 7.4) and incubated at room temperature for 30 min. After centrifuging at 20,000×g for 20 min, the obtained precipitate was further suspended and centrifuged twice each in the same manner. The precipitate thus obtained was suspended in 100 times (based on the initial wet weight; in the case of the hippocampus) or 20 times (in the case of the cortex) as much a 50 mM Tris hydrochloride solution (pH 7.4) to thereby give a receptor fraction. This receptor fraction was stored at −80° C. until using.
# (Binding Test on [^3H] Ketanserin)
# Next, it was filtered through a glass filter with the use of a cell harvester. After washing the glass filter with 50 mM Tris hydrochloride (pH 7.4), the radioactivity of the receptor was measured with a liquid scintillation counter. The binding detected in the presence of 1 μM of methysergide was referred to as the nonspecific binding.
# IC50 was calculated by the probit method, while Ki was determined in accordance with the following formula:
# wherein c represents the concentration of the radioisotope-labeled compound, and Kd represents the dissociation constant of the radioisotope-labeled compound with respect to the receptor determined by Scatchard's analysis.
Compound,Ki (serotonin 1A receptor),Ki (serotonin 2 receptor)
"CCNc1ccc2c(c1)N(C1CCN(CCc3ccc(F)cc3)CC1)CC2 [Example 112, 1-[1-(4-fluorophenethyl)piperidin-4-yl]-6-ethylaminoindoline]",3.2 nM,165 nM
"CC(C)Nc1ccc2c(c1)N(C1CCN(CCc3ccc(F)cc3)CC1)CC2 [Example 113, 1-[1-(4-fluorophenethyl)piperidin-4-yl]-6-isopropylaminoindoline]",13.7 nM,> 200 nM
"CN(C)c1ccc2c(c1)N(C1CCN(CCc3ccc(F)cc3)CC1)CC2 [Example 114, 1-[1-(4-fluorophenethyl)piperidin-4-yl]-6-dimethylaminoindoline]",5.8 nM,23.2 nM
"CS(=O)(=O)Nc1ccc2c(c1)N(C1CCN(CCc3ccc(F)cc3)CC1)CC2 [Example 116, 1-[1-(4-fluorophenethyl)piperidin-4-yl]-6-methanesulfonylaminoindoline]",0.5 nM,14.3 nM
"CCS(=O)(=O)Nc1ccc2c(c1)N(C1CCN(CCc3ccc(F)cc3)CC1)CC2 [Example 117, 1-[1-(4-fluorophenethyl)piperidin-4-yl]-6-ethanesulfonylaminoindoline]",0.6 nM,10.7 nM
"CCCS(=O)(=O)Nc1ccc2c(c1)N(C1CCN(CCc3ccc(F)cc3)CC1)CC2 [Example 118, 1-[1-(4-fluorophenethyl)piperidin-4-yl]-6-propanesulfonylaminoindoline]",0.7 nM,10.4 nM
"O=S(=O)(Nc1ccc2c(c1)N(C1CCN(CCc3ccc(F)cc3)CC1)CC2)c1ccc(F)cc1 [Example 119, 1-[1-(4-fluorophenethyl)piperidin-4-yl]-6-(4-fluorobenzenesulfonylamino)indoline]",0.2 nM,45.5 nM
CN(c1ccc2c(c1)N(C1CCN(CCc3ccc(F)cc3)CC1)CC2)S(C)(=O)=O [Example 120],1 nM,11.2 nM
"CS(=O)(=O)Oc1ccc2c(c1)N(C1CCN(CCc3ccc(F)cc3)CC1)CC2 [Example 122, 1-[1-(4-fluorophenethyl)piperidin-4-yl]-6-methanesulfonyloxyindoline]",0.2 nM,15.2 nM
"OCCOc1cccc2c1N(C1CCN(CCc3ccc(F)cc3)CC1)CC2 [Example 123, 1-[1-(4-fluorophenethyl)piperidin-4-yl]-7-hydroxyethoxyindoline]",251 nM,2.7 nM
"N#Cc1ccc2c(c1)N(C1CCN(CCc3ccc(F)cc3)CC1)CC2 [Example 124, 1-[1-(4-fluorophenethyl)piperidin-4-yl]-6-cyanoindoline]",1.1 nM,45.8 nM
"O=C(c1ccc2c(c1)N(C1CCN(CCc3ccc(F)cc3)CC1)CC2)n1cccc1 [Example 126, 1-[1-(4-fluorophenethyl)piperidin-4-yl]-6-(1-pyrrolylcarbonyl)indoline]",1.23 nM,129 nM
"CC(=O)c1ccc2c(c1)N(C1CCN(CCc3ccc(F)cc3)CC1)CC2 [Example 127, 1-[1-(4-fluorophenethyl)piperidin-4-yl]-6-acetylindoline]",0.21 nM,5.08 nM
"CS(=O)(=O)c1ccc2c(c1)N(C1CCN(CCc3ccc(F)cc3)CC1)CC2 [Example 128, 1-[1-(4-fluorophenethyl)piperidin-4-yl]-6-methanesulfonylindoline]",0.34 nM,4.7 nM
"NC(=S)Cc1ccc2c(c1)N(C1CCN(CCc3ccc(F)cc3)CC1)CC2 [Example 129, 1-[1-(4-fluorophenethyl)piperidin-4-yl]-6-thiocarbamoylmethylindoline]",0.95 nM,0.65 nM
"O=Cc1ccc2c(c1)N(C1CCN(CCc3ccc(F)cc3)CC1)CC2 [Example 130, 1-[1-(4-fluorophenethyl)piperidin-4-yl]-6-formylindoline]",0.49 nM,9.12 nM
"O/N=C/c1ccc2c(c1)N(C1CCN(CCc3ccc(F)cc3)CC1)CC2 [Example 131, 1-[1-(4-fluorophenethyl)piperidin-4-yl]-6-hydroxyiminomethylindoline]",0.17 nM,15.2 nM
"NCc1ccc2c(c1)N(C1CCN(CCc3ccc(F)cc3)CC1)CC2 [Example 132, 1-[1-(4-fluorophenethyl)piperidin-4-yl]-6-aminomethylindoline]",2.08 nM,14.3 nM
"OCc1ccc2c(c1)N(C1CCN(CCc3ccc(F)cc3)CC1)CC2 [Example 136, 1-[1-(4-fluorophenethyl)piperidin-4-yl]-6-hydroxymethylindoline]",3.4 nM,6.2 nM

Compound,Ki (serotonin 1A receptor),Ki (serotonin 2 receptor)
"CCC(O)c1ccc2c(c1)N(C1CCN(CCc3ccc(F)cc3)CC1)CC2 (stereo not shown) [Example 138, 1-[1-(4-fluorophenethyl)piperidin-4-yl]-6-(1-hydroxypropyl)indoline]",1.98 nM,5.93 nM
"CC(C)(O)c1ccc2c(c1)N(C1CCN(CCc3ccc(F)cc3)CC1)CC2 [Example 139, 1-[1-(4-fluorophenethyl)piperidin-4-yl]-6-(1-hydroxy-1-methylethyl)indoline]",2.31 nM,8.8 nM
"OC1(c2ccc3c(c2)N(C2CCN(CCc4ccc(F)cc4)CC2)CC3)CCC1 [Example 140, 1-[1-(4-fluorophenethyl)piperidin-4-yl]-6-(1-hydroxycyclobutyl)indoline]",6.23 nM,35.1 nM
"OC1(c2ccc3c(c2)N(C2CCN(CCc4ccc(F)cc4)CC2)CC3)CCCC1 [Example 141, 1-[1-(4-fluorophenethyl)piperidin-4-yl]-6-(1-hydroxycyclopentyl)indoline]",3.03 nM,343 nM
"FCc1ccc2c(c1)N(C1CCN(CCc3ccc(F)cc3)CC1)CC2 [Example 143, 1-[1-(4-fluorophenethyl)piperidin-4-yl]-6-fluoromethylindoline]",1.86 nM,3.36 nM
"CC(F)c1ccc2c(c1)N(C1CCN(CCc3ccc(F)cc3)CC1)CC2 (stereo not shown) [Example 144, 1-[1-(4-fluorophenethyl)piperidin-4-yl]-6-(1-fluoroethyl)indoline]",1.49 nM,3.38 nM
"N#CCc1ccc2c(c1)N(C1CCN(CCc3ccc(F)cc3)CC1)CC2 [Example 145, 1-[1-(4-fluorophenethyl)piperidin-4-yl]-6-cyanomethylindoline]",8.07 nM,48.8 nM
"O=C(O)Cc1ccc2c(c1)N(C1CCN(CCc3ccc(F)cc3)CC1)CC2 [Example 146, 1-[1-(4-fluorophenethyl)piperidin-4-yl]-6-carboxymethylindoline]",164 nM,> 200 nM
"CNC(=O)Cc1ccc2c(c1)N(C1CCN(CCc3ccc(F)cc3)CC1)CC2 [Example 148, 1-[1-(4-fluorophenethyl)piperidin-4-yl]-6-(methylcarbamoylmethyl)indoline]",9.58 nM,0.25 nM
"CCCNC(=O)Cc1ccc2c(c1)N(C1CCN(CCc3ccc(F)cc3)CC1)CC2 [Example 150, 1-[1-(4-fluorophenethyl)piperidin-4-yl]-6-(n-propylcarbamoylmethyl)indoline]",13 nM,0.16 nM
"CC(C)CNC(=O)Cc1ccc2c(c1)N(C1CCN(CCc3ccc(F)cc3)CC1)CC2 [Example 152, 1-[1-(4-fluorophenethyl)piperidin-4-yl]-6-(isobutylcarbamoylmethyl)indoline]",16.4 nM,0.27 nM
"CC(C)(C)NC(=O)Cc1ccc2c(c1)N(C1CCN(CCc3ccc(F)cc3)CC1)CC2 [Example 153, 1-[1-(4-fluorophenethyl)piperidin-4-yl]-6-(t-butylcarbamoylmethyl)indoline]",15.5 nM,4.24 nM
"O=C(Cc1ccc2c(c1)N(C1CCN(CCc3ccc(F)cc3)CC1)CC2)N1CCCC1 [Example 155, 1-[1-(4-fluorophenethyl)piperidin-4-yl]-6-(tetramethylenecarbamoylmethyl)indoline]",14.8 nM,1.33 nM
"CCC(=O)NCc1ccc2c(c1)N(C1CCN(CCc3ccc(F)cc3)CC1)CC2 [Example 156, 1-[1-(4-fluorophenethyl)piperidin-4-yl]-6-propionylaminomethylindoline]",7.8 nM,2.6 nM
"CCCC(=O)NCc1ccc2c(c1)N(C1CCN(CCc3ccc(F)cc3)CC1)CC2 [Example 157, 1-[1-(4-fluorophenethyl)piperidin-4-yl]-6-(n-butyryl)aminomethylindoline]",4.11 nM,0.18 nM
"CC(C)C(=O)NCc1ccc2c(c1)N(C1CCN(CCc3ccc(F)cc3)CC1)CC2 [Example 158, 1-[1-(4-fluorophenethyl)piperidin-4-yl]-6-isobutyrylaminomethylindoline]",8.18 nM,0.16 nM
"O=C(NCc1ccc2c(c1)N(C1CCN(CCc3ccc(F)cc3)CC1)CC2)C1CC1 [Example 159, 1-[1-(4-fluorophenethyl)piperidin-4-yl]-6-cyclopropanecarboxamindomethylindoline]",5.58 nM,0.76 nM
"CS(=O)(=O)NCc1ccc2c(c1)N(C1CCN(CCc3ccc(F)cc3)CC1)CC2 [Example 160, 1-[1-(4-fluorophenethyl)piperidin-4-yl]-6-methylsulfonylaminomethylindoline]",3.86 nM,8 nM
"NC(=O)NCc1ccc2c(c1)N(C1CCN(CCc3ccc(F)cc3)CC1)CC2 [Example 161, 1-[1-(4-fluorophenethyl)piperidin-4-yl]-6-ureidomethylindoline]",3.23 nM,0.43 nM
